Results taken from ChEMBL document CHEMBL4507283, “Data for DCP probe BI-1935” (2021).

What was measured:
[1] = molecular target: B2 bradykinin receptor (Homo sapiens) (UniProt P30411); test: B2/HU Eurofins-Panlabs selectivity data (BI); conditions: Compound concentration 10.0 uM
[2] = molecular target: Carbonic anhydrase 6 (Homo sapiens) (UniProt P23280); test: CANHYDRASE Eurofins-Panlabs selectivity data (BI); conditions: Compound concentration 10.0 uM
[3] = molecular target: D(2) dopamine receptor (Homo sapiens) (UniProt P14416); test: D2L/H Eurofins-Panlabs selectivity data (BI); conditions: Compound concentration 10.0 uM
[4] = molecular target: Glutamate receptor ionotropic, NMDA 1 (Rattus norvegicus) (UniProt P35439); test: GLUTAMAT/R Eurofins-Panlabs selectivity data (BI); conditions: Compound concentration 10.0 uM
[5] = molecular target: ATP-sensitive inward rectifier potassium channel 1 isoform X1 (Mesocricetus auratus) (UniProt A0A1U8CU73); test: K+/KATP/HA Eurofins-Panlabs selectivity data (BI); conditions: Compound concentration 10.0 uM
[6] = molecular target: Small conductance calcium-activated potassium channel protein 1 (Rattus norvegicus) (UniProt P70606); test: K+/SKCA Eurofins-Panlabs selectivity data (BI); conditions: Compound concentration 10.0 uM
[7] = molecular target: Leukotriene C4 synthase (Cavia porcellus) (UniProt A6XA80); test: LTC4SYN Eurofins-Panlabs selectivity data (BI); conditions: Compound concentration 10.0 uM
[8] = molecular target: Acetylcholine receptor subunit alpha (Homo sapiens) (UniProt P02708); test: NACH/H Eurofins-Panlabs selectivity data (BI); conditions: Compound concentration 10.0 uM
[9] = test system: ALK tyrosine kinase receptor (Homo sapiens), Q9UM73 [L1196M]; conditions: Compound concentration 1000.0 nM
[10] = molecular target: Calcium/calmodulin-dependent protein kinase type II subunit delta (Homo sapiens) (UniProt Q13557); conditions: Compound concentration 1000.0 nM
Calcium/calmodulin-dependent protein kinase type II subunit delta (Homo sapiens), sequence (Q13557 whole entry): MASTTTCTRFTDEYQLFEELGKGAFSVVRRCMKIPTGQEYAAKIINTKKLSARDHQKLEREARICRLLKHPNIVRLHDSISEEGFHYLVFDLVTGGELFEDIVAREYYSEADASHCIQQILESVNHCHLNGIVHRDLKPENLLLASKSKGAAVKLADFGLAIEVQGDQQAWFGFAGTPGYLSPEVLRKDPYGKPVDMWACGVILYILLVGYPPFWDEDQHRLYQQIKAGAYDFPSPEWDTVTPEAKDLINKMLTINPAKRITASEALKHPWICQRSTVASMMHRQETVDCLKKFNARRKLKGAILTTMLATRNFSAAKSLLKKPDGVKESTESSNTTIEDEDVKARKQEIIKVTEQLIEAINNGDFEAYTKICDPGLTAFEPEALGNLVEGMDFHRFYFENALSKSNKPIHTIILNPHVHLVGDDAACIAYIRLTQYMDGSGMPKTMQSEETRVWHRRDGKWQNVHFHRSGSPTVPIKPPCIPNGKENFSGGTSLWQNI

[11] = molecular target: Cyclin-dependent kinase 2 (Homo sapiens) (UniProt P24941); conditions: Compound concentration 1000.0 nM
[12] = molecular target: Cyclin-dependent kinase 3 (Homo sapiens) (UniProt Q00526); conditions: Compound concentration 1000.0 nM
[13] = molecular target: Cyclin-dependent kinase 4 (Homo sapiens) (UniProt P11802); conditions: Compound concentration 1000.0 nM
[14] = molecular target: Casein kinase I isoform epsilon (Homo sapiens) (UniProt P49674); conditions: Compound concentration 1000.0 nM
[15] = molecular target: Serine/threonine-protein kinase DCLK1 (Homo sapiens) (UniProt O15075); conditions: Compound concentration 1000.0 nM
[16] = molecular target: Serine/threonine-protein kinase DCLK3 (Homo sapiens) (UniProt Q9C098); conditions: Compound concentration 1000.0 nM
Serine/threonine-protein kinase DCLK3 (Homo sapiens), sequence (Q9C098 whole entry): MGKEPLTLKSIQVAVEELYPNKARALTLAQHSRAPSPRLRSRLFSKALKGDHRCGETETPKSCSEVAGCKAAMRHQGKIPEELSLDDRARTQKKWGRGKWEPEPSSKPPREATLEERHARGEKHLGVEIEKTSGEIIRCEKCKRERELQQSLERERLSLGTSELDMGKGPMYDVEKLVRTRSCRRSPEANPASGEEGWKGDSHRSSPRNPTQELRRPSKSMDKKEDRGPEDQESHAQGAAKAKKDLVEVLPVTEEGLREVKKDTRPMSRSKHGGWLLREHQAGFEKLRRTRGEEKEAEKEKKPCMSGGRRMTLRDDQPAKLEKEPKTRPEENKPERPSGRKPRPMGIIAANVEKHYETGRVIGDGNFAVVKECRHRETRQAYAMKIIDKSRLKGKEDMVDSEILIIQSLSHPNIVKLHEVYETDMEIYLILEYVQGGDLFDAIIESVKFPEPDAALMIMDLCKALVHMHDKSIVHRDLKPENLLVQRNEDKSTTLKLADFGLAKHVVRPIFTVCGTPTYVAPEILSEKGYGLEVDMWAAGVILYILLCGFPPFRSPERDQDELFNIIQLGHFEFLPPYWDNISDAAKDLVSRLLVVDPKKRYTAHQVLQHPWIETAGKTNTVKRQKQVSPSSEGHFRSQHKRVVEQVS

[17] = molecular target: Dual specificity tyrosine-phosphorylation-regulated kinase 2 (Homo sapiens) (UniProt Q92630); conditions: Compound concentration 1000.0 nM
[18] = molecular target: Mitogen-activated protein kinase 3 (Homo sapiens) (UniProt P27361); conditions: Compound concentration 1000.0 nM
[19] = test system: Receptor-type tyrosine-protein kinase FLT3 (Homo sapiens), P36888 [D835V]; conditions: Compound concentration 1000.0 nM
[20] = molecular target: Receptor-type tyrosine-protein kinase FLT3 (Homo sapiens) (UniProt P36888); conditions: Compound concentration 1000.0 nM
[21] = molecular target: Cyclin-G-associated kinase (Homo sapiens) (UniProt O14976); conditions: Compound concentration 1000.0 nM
[22] = molecular target: Rhodopsin kinase GRK1 (Homo sapiens) (UniProt Q15835); conditions: Compound concentration 1000.0 nM
[23] = molecular target: Homeodomain-interacting protein kinase 4 (Homo sapiens) (UniProt Q8NE63); conditions: Compound concentration 1000.0 nM
Homeodomain-interacting protein kinase 4 (Homo sapiens), sequence (Q8NE63 whole entry): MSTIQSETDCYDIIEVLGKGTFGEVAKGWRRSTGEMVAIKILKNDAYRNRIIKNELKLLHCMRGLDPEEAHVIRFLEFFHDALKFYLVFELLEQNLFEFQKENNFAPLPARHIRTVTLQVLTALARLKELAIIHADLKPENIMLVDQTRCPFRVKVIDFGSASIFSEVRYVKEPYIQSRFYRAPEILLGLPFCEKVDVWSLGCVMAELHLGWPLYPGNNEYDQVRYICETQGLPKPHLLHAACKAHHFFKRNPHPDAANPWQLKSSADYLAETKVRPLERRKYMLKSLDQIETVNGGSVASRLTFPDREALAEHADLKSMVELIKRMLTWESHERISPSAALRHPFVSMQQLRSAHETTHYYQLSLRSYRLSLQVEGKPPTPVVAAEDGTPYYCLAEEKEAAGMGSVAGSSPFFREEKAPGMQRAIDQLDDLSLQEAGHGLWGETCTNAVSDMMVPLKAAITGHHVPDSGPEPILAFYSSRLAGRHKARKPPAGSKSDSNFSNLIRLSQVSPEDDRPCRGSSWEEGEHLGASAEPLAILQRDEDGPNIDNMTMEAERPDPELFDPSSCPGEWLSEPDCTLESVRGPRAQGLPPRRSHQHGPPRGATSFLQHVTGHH

[24] = molecular target: Mitogen-activated protein kinase 9 (Homo sapiens) (UniProt P45984); conditions: Compound concentration 1000.0 nM
Mitogen-activated protein kinase 9 (Homo sapiens), sequence (P45984 whole entry, looked up): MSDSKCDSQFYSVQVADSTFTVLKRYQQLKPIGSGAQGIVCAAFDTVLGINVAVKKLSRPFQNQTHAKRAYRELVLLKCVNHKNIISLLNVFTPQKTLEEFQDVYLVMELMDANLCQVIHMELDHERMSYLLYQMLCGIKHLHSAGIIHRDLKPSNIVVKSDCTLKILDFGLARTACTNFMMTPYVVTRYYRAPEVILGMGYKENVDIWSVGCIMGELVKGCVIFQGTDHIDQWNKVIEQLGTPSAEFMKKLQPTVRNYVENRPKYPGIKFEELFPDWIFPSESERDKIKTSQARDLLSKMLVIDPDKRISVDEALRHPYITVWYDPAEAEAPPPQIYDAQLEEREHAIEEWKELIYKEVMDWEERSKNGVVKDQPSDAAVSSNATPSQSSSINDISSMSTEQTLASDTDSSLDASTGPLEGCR

[25] = test system: Mast/stem cell growth factor receptor Kit (Homo sapiens), P10721 [A829P]; conditions: Compound concentration 1000.0 nM
[26] = test system: Mast/stem cell growth factor receptor Kit (Homo sapiens), P10721 [L576P]; conditions: Compound concentration 1000.0 nM
Mast/stem cell growth factor receptor Kit (Homo sapiens), P10721 [L576P], sequence (P10721 whole entry L576P, the tested form may be a part): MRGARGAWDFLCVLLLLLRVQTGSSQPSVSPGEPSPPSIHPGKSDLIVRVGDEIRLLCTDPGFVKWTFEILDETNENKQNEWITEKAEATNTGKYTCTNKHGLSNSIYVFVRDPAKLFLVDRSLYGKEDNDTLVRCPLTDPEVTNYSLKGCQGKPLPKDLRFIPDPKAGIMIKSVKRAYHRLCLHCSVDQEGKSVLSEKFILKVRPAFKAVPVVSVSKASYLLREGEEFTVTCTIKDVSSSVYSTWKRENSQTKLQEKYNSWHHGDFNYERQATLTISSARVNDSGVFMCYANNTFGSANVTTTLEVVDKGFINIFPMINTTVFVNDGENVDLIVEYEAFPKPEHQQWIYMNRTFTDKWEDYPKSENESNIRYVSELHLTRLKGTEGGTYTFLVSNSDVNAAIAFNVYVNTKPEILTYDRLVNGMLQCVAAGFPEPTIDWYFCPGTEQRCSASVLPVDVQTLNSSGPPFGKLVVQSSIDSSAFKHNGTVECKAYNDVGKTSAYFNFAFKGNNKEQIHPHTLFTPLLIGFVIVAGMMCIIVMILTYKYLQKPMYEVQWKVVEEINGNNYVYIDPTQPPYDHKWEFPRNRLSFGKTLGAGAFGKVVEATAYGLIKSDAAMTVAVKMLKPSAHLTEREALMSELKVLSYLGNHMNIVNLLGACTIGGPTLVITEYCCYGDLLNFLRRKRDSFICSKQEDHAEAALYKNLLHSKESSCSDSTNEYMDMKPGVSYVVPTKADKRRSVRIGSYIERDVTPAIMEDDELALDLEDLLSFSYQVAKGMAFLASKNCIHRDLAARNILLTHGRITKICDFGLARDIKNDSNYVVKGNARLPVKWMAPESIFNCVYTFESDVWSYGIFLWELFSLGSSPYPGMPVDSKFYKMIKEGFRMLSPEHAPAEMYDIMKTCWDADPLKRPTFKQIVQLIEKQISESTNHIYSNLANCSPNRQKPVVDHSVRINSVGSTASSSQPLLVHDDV

[27] = molecular target: LIM domain kinase 1 (Homo sapiens) (UniProt P53667); conditions: Compound concentration 1000.0 nM
[28] = molecular target: Leukocyte tyrosine kinase receptor (Homo sapiens) (UniProt P29376); conditions: Compound concentration 1000.0 nM
[29] = molecular target: Serine/threonine-protein kinase 4 (Homo sapiens) (UniProt Q13043); conditions: Compound concentration 1000.0 nM
[30] = molecular target: Serine/threonine-protein kinase PAK 6 (Homo sapiens) (UniProt Q9NQU5); conditions: Compound concentration 1000.0 nM
[31] = test system: Phosphatidylinositol 4,5-bisphosphate 3-kinase catalytic subunit alpha isoform (Homo sapiens), P42336 [E542K]; conditions: Compound concentration 1000.0 nM
Phosphatidylinositol 4,5-bisphosphate 3-kinase catalytic subunit alpha isoform (Homo sapiens), P42336 [E542K], sequence (P42336 whole entry E542K, canonical isoform): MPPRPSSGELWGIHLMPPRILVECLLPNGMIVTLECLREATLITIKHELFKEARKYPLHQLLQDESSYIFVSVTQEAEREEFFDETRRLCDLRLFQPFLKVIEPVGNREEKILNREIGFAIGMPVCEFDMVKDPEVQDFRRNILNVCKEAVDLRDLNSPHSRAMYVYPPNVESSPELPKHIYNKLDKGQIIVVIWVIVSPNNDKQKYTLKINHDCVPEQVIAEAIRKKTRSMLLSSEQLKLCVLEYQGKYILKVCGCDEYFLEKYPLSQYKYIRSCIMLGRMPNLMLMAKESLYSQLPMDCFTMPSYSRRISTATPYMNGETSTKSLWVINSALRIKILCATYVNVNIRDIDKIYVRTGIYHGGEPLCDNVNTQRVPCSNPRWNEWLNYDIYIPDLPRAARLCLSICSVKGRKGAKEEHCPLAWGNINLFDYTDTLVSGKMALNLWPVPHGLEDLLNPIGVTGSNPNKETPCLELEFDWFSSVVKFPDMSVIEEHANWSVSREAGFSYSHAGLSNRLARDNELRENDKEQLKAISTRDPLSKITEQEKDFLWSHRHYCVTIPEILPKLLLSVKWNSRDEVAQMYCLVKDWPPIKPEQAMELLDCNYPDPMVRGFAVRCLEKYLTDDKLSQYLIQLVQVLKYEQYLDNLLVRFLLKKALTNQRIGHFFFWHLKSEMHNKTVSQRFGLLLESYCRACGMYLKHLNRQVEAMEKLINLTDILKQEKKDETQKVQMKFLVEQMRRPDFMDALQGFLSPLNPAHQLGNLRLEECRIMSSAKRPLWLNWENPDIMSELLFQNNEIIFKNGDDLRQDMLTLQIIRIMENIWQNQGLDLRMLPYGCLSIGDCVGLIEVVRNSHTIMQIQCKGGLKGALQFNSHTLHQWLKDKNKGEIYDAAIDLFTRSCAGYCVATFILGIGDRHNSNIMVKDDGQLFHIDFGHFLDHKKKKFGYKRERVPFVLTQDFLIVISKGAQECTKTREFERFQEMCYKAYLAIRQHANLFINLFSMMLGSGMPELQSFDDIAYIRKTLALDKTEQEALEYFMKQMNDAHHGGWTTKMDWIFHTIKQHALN

[32] = test system: Phosphatidylinositol 4,5-bisphosphate 3-kinase catalytic subunit alpha isoform (Homo sapiens), P42336 [H1047Y]; conditions: Compound concentration 1000.0 nM
[33] = test system: Phosphatidylinositol 4,5-bisphosphate 3-kinase catalytic subunit alpha isoform (Homo sapiens), P42336 [Q546K]; conditions: Compound concentration 1000.0 nM
[34] = molecular target: Phosphatidylinositol 4,5-bisphosphate 3-kinase catalytic subunit gamma isoform (Homo sapiens) (UniProt P48736); conditions: Compound concentration 1000.0 nM
[35] = molecular target: Serine/threonine-protein kinase pim-1 (Homo sapiens) (UniProt P11309); conditions: Compound concentration 1000.0 nM
[36] = molecular target: Protein kinase C epsilon type (Homo sapiens) (UniProt Q02156); conditions: Compound concentration 1000.0 nM
[37] = molecular target: Interferon-induced, double-stranded RNA-activated protein kinase (Homo sapiens) (UniProt P19525); conditions: Compound concentration 1000.0 nM
[38] = molecular target: STE20-like serine/threonine-protein kinase (Homo sapiens) (UniProt Q9H2G2); conditions: Compound concentration 1000.0 nM
[39] = molecular target: TGF-beta receptor type-2 (Homo sapiens) (UniProt P37173); conditions: Compound concentration 1000.0 nM
[40] = molecular target: Phosphatidylinositol 3-kinase catalytic subunit type 3 (Homo sapiens) (UniProt Q8NEB9); conditions: Compound concentration 1000.0 nM
[41] = molecular target: Tyrosine-protein kinase ZAP-70 (Homo sapiens) (UniProt P43403); conditions: Compound concentration 1000.0 nM
[42] = molecular target: 5-hydroxytryptamine receptor 1E (Homo sapiens) (UniProt P28566); conditions: Compound concentration 10.0 uM
[43] = molecular target: 5-hydroxytryptamine receptor 7 (Homo sapiens) (UniProt P34969); conditions: Compound concentration 10.0 uM
[44] = molecular target: Alpha-1A adrenergic receptor (Homo sapiens) (UniProt P35348); conditions: Compound concentration 10.0 uM
[45] = molecular target: Alpha-2B adrenergic receptor (Homo sapiens) (UniProt P18089); conditions: Compound concentration 10.0 uM

B2 bradykinin receptor (Homo sapiens), sequence (P30411 whole entry): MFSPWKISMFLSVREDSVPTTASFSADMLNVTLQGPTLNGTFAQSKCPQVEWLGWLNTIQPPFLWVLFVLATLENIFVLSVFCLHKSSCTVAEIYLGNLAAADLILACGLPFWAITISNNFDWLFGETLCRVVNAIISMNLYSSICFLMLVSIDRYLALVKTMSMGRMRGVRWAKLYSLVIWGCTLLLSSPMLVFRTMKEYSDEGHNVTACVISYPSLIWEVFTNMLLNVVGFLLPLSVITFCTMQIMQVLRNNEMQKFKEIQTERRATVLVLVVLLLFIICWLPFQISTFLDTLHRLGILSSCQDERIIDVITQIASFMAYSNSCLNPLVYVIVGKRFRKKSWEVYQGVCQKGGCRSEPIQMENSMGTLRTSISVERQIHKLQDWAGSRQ
Carbonic anhydrase 6 (Homo sapiens), sequence (P23280 whole entry): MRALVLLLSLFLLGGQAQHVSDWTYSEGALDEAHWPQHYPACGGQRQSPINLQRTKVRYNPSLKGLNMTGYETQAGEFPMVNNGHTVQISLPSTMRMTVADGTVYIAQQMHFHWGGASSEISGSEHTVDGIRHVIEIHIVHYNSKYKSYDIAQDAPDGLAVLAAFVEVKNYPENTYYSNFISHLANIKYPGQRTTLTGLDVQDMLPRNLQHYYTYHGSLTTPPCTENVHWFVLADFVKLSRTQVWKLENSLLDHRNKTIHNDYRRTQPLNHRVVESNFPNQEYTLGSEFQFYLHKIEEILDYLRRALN

CCOCCn1cc(C(=O)Nc2ccc(-n3nc(-c4cccnc4)cc3C(F)(F)F)cn2)ccc1=O [BI 1935]
inactive: residual activity [1] 100% | residual activity [2] 96% | residual activity [3] 97% | residual activity [4] 103% | residual activity [5] 92% | residual activity [6] 106% | residual activity [7] 112% | residual activity [8] 114% | residual activity [9] 73% | residual activity [10] 100% | residual activity [11] 100% | residual activity [12] 100% | residual activity [13] 93% | residual activity [14] 100% | residual activity [15] 83% | residual activity [16] 100% | residual activity [17] 100% | residual activity [18] 100% | residual activity [19] 100% | residual activity [20] 87% | residual activity [21] 100% | residual activity [22] 74% | residual activity [23] 100% | residual activity [24] 97% | residual activity [25] 100% | residual activity [26] 94% | residual activity [27] 84% | residual activity [28] 100% | residual activity [29] 100% | residual activity [30] 100% | residual activity [31] 100% | residual activity [32] 100% | residual activity [33] 95% | residual activity [34] 100% | residual activity [35] 100% | residual activity [36] 100% | residual activity [37] 100% | residual activity [38] 100% | residual activity [39] 100% | residual activity [40] 77% | residual activity [41] 67% | inhibition [42] -4.17% | inhibition [43] -4.21% | inhibition [44] 29.3% | inhibition [45] 4.9%
